{"source": "patent US5120744A", "about": "“Substituted (quinolin-2-yl-methoxy)phenylthioureas” (Bayer Aktiengesellschaft, priority 1989, dated 1992)", "system": "lipoxygenase", "experiment": "lipoxygenase inhibition: release of leukotriene B4 (LTB4) from polymorphonuclear rat leukocytes (PMN), reverse phase HPLC, after adding substances and Ca ionophore", "type": "cell-based", "conditions": "read-out: LO inhibition IC50", "experimental": "As a measure of the lipoxygenase inhibition, the release of leukotriene B4 (LTB4) from polymorphonuclear rat leukocytes (PMN) was determined by means of reverse phase HPLC according to Borgeat, P. et al., Proc. Nat. Acad. Sci. 76, 2148-2152 (1979) after adding substances and Ca ionophore. The in vivo activity of the compounds was determined using the mouse ear inflammation model according to Young, J. M. et al., J. of Investigative Dermatology 82, 367-371, (1984)."}
{"smiles": "Cc1cc([N+](=O)[O-])ccc1NC(=S)Nc1ccc(OCc2ccc3ccccc3n2)cc1", "note": "[Example 3, N-(2-Methyl-4-nitrophenyl)-N'-4-(quinolin-2-yl-methoxy)phenyl-thiourea]", "values": [{"measurement": "IC50", "result": 36, "unit": "nM"}]}
{"smiles": "Cc1cc([N+](=O)[O-])c(Cl)cc1NC(=S)Nc1ccc(OCc2ccc3ccccc3n2)cc1", "note": "[Example 4, N-(2-Methyl-4-nitro-5-chlorophenyl)-N'-4-(quinolin-2-yl-methyloxy)phenyl-thiourea]", "values": [{"measurement": "IC50", "result": 33, "unit": "nM"}]}
{"smiles": "Cc1cc(Cl)c(Cl)cc1NC(=S)Nc1ccc(OCc2ccc3ccccc3n2)cc1", "note": "[Example 5]", "values": [{"measurement": "IC50", "result": 410, "unit": "nM"}]}
{"smiles": "O=C(NC(=S)Nc1ccc(OCc2ccc3ccccc3n2)cc1)c1ccc(Cl)cc1", "note": "[Example 6, N-(4-Chlorobenzoyl)-N'-4-(quinolin-2-yl-methoxy)-phenyl-thiourea]", "values": [{"measurement": "IC50", "result": 360, "unit": "nM"}]}
{"smiles": "N#CC1(NC(=S)Nc2ccc(OCc3ccc4ccccc4n3)cc2)CCCCC1", "note": "[Example 7, N-(1-Cyano-cyclohexyl)-N'-4-(quinolin-2-yl-methoxy)phenyl-thiourea]", "values": [{"measurement": "IC50", "result": 240, "unit": "nM"}]}
{"smiles": "Cc1cc(Cl)ccc1NC(=S)Nc1ccc(OCc2ccc3ccccc3n2)cc1", "note": "[Example 8, N-(2-Methyl-4-chlorophenyl)-N'-4-(quinolin-2-yl-methoxy)phenyl-thiourea]", "values": [{"measurement": "IC50", "result": 290, "unit": "nM"}]}
